Usually ED50 stands for the midpoint of the dose-response relation. For orientation: IC50 means the concentration at which inhibition is half-maximal.

One assay deals with Mus musculus. Description: Analgesic activity in sc dosed mouse assessed as inhibition of phenylquinone-induced writhing. Further details: log(1/ED50): unit not given here. Format: functional. On the technique in general: An intraperitoneal irritant provokes the stretching counted in writhing tests.
The next assay concerns the target Opioid receptor (Rattus norvegicus, UniProt P33533+P34975+P33535). Description: Displacement of [3H]naloxone from Sprague-Dawley rat cerebellum opioid receptor assessed as relative receptor affinity by scintillation counting. The class given is protein assay. (Loss of bound radioactivity is the signal in a displacement assay; it reports binding, not function.)
The mark [1] stands for this setting: Mus musculus, sc, read-out: ED50.

For the compound `CN1CC[C@]23CCCC[C@H]2[C@H]1Cc1ccc(O)cc13.O.O=C(O)C(O)C(O)C(=O)O`, the ED50 in the assay with Mus musculus (setting [1]) was determined as 0.24 mg/kg.
As for `C[C@H]1[C@H]2Cc3ccc(O)cc3[C@]1(c1ccccc1)CCN2C.Cl`, the “log(1/ED50)” value in the assay on Mus musculus was determined as 2.82. For the same compound, in the assay with Mus musculus (setting [1]), the ED50 was determined as 0.5 mg/kg. Also, the 50% inhibitory concentration (IC50) at Opioid receptor stood at 19 nM.
Taken in the same sequence, the figures for `C[C@@H]1[C@@H]2Cc3ccc(O)cc3[C@@]1(c1ccccc1)CCN2C.Cl` were 1.9, 4.2 mg/kg and 10000 nM.
In the case of `C[C@H]1[C@H]2Cc3ccc(O)cc3[C@]1(c1ccccc1)CC[N+]2(C)C.[I-]`, the IC50 at Opioid receptor is 320 nM.
As to `CN1CCC2(c3ccccc3)CC1Cc1ccccc12.O=C(O)C(O)C(O)C(=O)O` (single isomer, unassigned; form 1), the “log(1/ED50)” value in the assay on Mus musculus stood at 1.88. The ED50 in the assay on Mus musculus (setting [1]) was 5.5 mg/kg. Further, the concentration for half-maximal inhibition (IC50) on Opioid receptor was 600 nM.
With `CN1CCC2(c3ccccc3)CC1Cc1ccccc12.O=C(O)C(O)C(O)C(=O)O` (single isomer, unassigned; form 2), in the assay with Mus musculus, the ED50 was found to be 8 mg/kg and the “log(1/ED50)” value was 1.71. The IC50 on Opioid receptor was found to be 3000 nM.
In the case of `CCOC(=O)C1(c2ccccc2)CCN(C)CC1.Cl` [MEPERIDINE HYDROCHLORIDE], the “log(1/ED50)” value in the assay on Mus musculus is 1.61. Besides, the ED50 with Mus musculus (setting [1]) was determined as 7 mg/kg.

The values are drawn from ChEMBL document CHEMBL3243998, “Conformation of 2,9-dimethyl-3'-hydroxy-5-phenyl-6,7-genzomorphan and its relation to other analgetics and enkephalin” (J Med Chem, 1978).
